Values joined by “and” are separate entries in the source; they are usually repeats but may differ in a detail not shown here. Identical values can stand only once.
Experiments:
[1] = for Normal melting temperature: DTA
[2] = Molar enthalpy of transition or fusion; settings: Crystal; DSC

COc1ccccc1C(=O)O [2-methoxybenzoic acid]
[1]
Settings	vapor or sublimation pressure
318.25 K, Crystal, Closed cell (Static) method	6.16e-05 kPa
320.73 K, Crystal, Closed cell (Static) method	8.28e-05 kPa
323.21 K, Crystal, Closed cell (Static) method	0.0001133 kPa
325.68 K, Crystal, Closed cell (Static) method	0.0001504 kPa
328.17 K, Crystal, Closed cell (Static) method	0.0002043 kPa
330.65 K, Crystal, Closed cell (Static) method	0.0002676 kPa
333.12 K, Crystal, Closed cell (Static) method	0.0003567 kPa
335.61 K, Crystal, Closed cell (Static) method	0.0004802 kPa
335.62 K, Crystal, Closed cell (Static) method	0.0004752 kPa
338.08 K, Crystal, Closed cell (Static) method	0.0006182 kPa
340.58 K, Crystal, Closed cell (Static) method	0.000822 kPa and 0.0008262 kPa
343.05 K, Crystal, Closed cell (Static) method	0.001076 kPa
344.3 K, Crystal, Transpiration method	0.00121 kPa
345.3 K, Crystal, Transpiration method	0.00133 kPa
345.4 K, Crystal, Transpiration method	0.00133 kPa
345.54 K, Crystal, Closed cell (Static) method	0.001402 kPa
346.4 K, Crystal, Transpiration method	0.0015 kPa
347.2 K, Crystal, Transpiration method	0.00163 kPa
347.4 K, Crystal, Transpiration method	0.00164 kPa
348.02 K, Crystal, Closed cell (Static) method	0.001813 kPa
348.34 K, Crystal, Closed cell (Static) method	0.001883 kPa
348.4 K, Crystal, Transpiration method	0.00179 kPa
349.2 K, Crystal, Transpiration method	0.00196 kPa
350.4 K, Crystal, Transpiration method	0.0023 kPa
350.5 K, Crystal, Closed cell (Static) method	0.002351 kPa
350.82 K, Crystal, Closed cell (Static) method	0.002438 kPa
352.4 K, Crystal, Transpiration method	0.00275 kPa
353.3 K, Crystal, Closed cell (Static) method	0.003074 kPa
353.5 K, Crystal, Transpiration method	0.00317 kPa
354.5 K, Crystal, Transpiration method	0.00349 kPa
355.5 K, Crystal, Transpiration method	0.00377 kPa
355.78 K, Crystal, Closed cell (Static) method	0.003984 kPa
356.5 K, Crystal, Transpiration method	0.00408 kPa
357.6 K, Crystal, Transpiration method	0.00472 kPa
358.26 K, Crystal, Closed cell (Static) method	0.005029 kPa
358.4 K, Crystal, Transpiration method	0.00508 kPa
359.5 K, Crystal, Transpiration method	0.00566 kPa
360.5 K, Crystal, Transpiration method	0.00637 kPa
360.75 K, Crystal, Closed cell (Static) method	0.006481 kPa
361.6 K, Crystal, Transpiration method	0.00677 kPa
362.5 K, Crystal, Transpiration method	0.00755 kPa
363.23 K, Crystal, Closed cell (Static) method	0.008104 kPa
363.6 K, Crystal, Transpiration method	0.00827 kPa
364.5 K, Crystal, Transpiration method	0.00908 kPa
365.71 K, Crystal, Closed cell (Static) method	0.01039 kPa
366.4 K, Crystal, Transpiration method	0.0107 kPa
366.6 K, Crystal, Transpiration method	0.01098 kPa
368.19 K, Crystal, Closed cell (Static) method	0.01325 kPa
368.6 K, Crystal, Transpiration method	0.01323 kPa
369.6 K, Crystal, Transpiration method	0.01454 kPa
378.32 K, Liquid, Closed cell (Static) method	0.0318 kPa
378.33 K, Liquid, Closed cell (Static) method	0.0318 kPa
380.81 K, Liquid, Closed cell (Static) method	0.0371 kPa
380.82 K, Liquid, Closed cell (Static) method	0.0371 kPa
383.29 K, Liquid, Closed cell (Static) method	0.0435 kPa
383.32 K, Liquid, Closed cell (Static) method	0.0435 kPa
385.78 K, Liquid, Closed cell (Static) method	0.0507 kPa and 0.0504 kPa
388.26 K, Liquid, Closed cell (Static) method	0.0588 kPa
388.29 K, Liquid, Closed cell (Static) method	0.0585 kPa
390.97 K, Liquid, Closed cell (Static) method	0.0691 kPa
390.98 K, Liquid, Closed cell (Static) method	0.0695 kPa
393.47 K, Liquid, Closed cell (Static) method	0.0797 kPa and 0.0801 kPa
395.94 K, Liquid, Closed cell (Static) method	0.0929 kPa
395.95 K, Liquid, Closed cell (Static) method	0.0933 kPa
398.44 K, Liquid, Closed cell (Static) method	0.1072 kPa and 0.1071 kPa
400.91 K, Liquid, Closed cell (Static) method	0.1239 kPa
400.94 K, Liquid, Closed cell (Static) method	0.1244 kPa
403.41 K, Liquid, Closed cell (Static) method	0.1413 kPa
403.44 K, Liquid, Closed cell (Static) method	0.1428 kPa
405.88 K, Liquid, Closed cell (Static) method	0.1621 kPa
405.89 K, Liquid, Closed cell (Static) method	0.1621 kPa
408.38 K, Liquid, Closed cell (Static) method	0.1849 kPa
408.39 K, Liquid, Closed cell (Static) method	0.1865 kPa
410.85 K, Liquid, Closed cell (Static) method	0.2113 kPa
410.87 K, Liquid, Closed cell (Static) method	0.2131 kPa
413.34 K, Liquid, Closed cell (Static) method	0.2389 kPa
413.38 K, Liquid, Closed cell (Static) method	0.242 kPa

Settings	Normal melting temperature [°C]
[1], Crystal	101.6

Settings	Molar enthalpy of transition or fusion [kcal/mol]
[2]	5.71

Cc1ccccc1C(=O)O [2-methylbenzoic acid]
[1], Crystal, Transpiration method
Settings	vapor or sublimation pressure [kPa]
331.2 K	0.0028
335.2 K	0.00421
341.2 K	0.00767
345.2 K	0.0112
348.2 K	0.01564
351.2 K	0.01962
355.4 K	0.02895
358.6 K	0.0389
358.7 K	0.03932
361.2 K	0.05138
364.2 K	0.06664
367.4 K	0.08391
373 K	0.1339

COc1cccc(C(=O)O)c1 [3-methoxybenzoic acid]
Settings	Normal melting temperature [°C]
[1], Crystal	109.0

Settings	Molar enthalpy of transition or fusion [kcal/mol]
[2]	5.23

COc1ccc(C(=O)O)cc1 [4-methoxybenzoic acid]
[1], Crystal, Transpiration method
Settings	vapor or sublimation pressure [kPa]
363.3 K	0.00117
368.2 K	0.0019
374.9 K	0.00353
383.2 K	0.00753
384.5 K	0.0085
388.3 K	0.01217
391.1 K	0.01556
394.2 K	0.01971
397.2 K	0.0267
400.3 K	0.03247
403.4 K	0.04422
406.2 K	0.05311

Cc1ccc(C(=O)O)cc1 [4-methylbenzoic acid]
[1], Crystal, Transpiration method
Settings	vapor or sublimation pressure [kPa]
340.4 K	0.00123
343.3 K	0.00162
348.5 K	0.00271
356.7 K	0.00558
359.3 K	0.00715
363.9 K	0.01097
368.5 K	0.01623
373.7 K	0.02473
374.4 K	0.02687
378.8 K	0.03813
380.1 K	0.04273
384.4 K	0.05807
389.2 K	0.08453
394 K	0.1213
398.8 K	0.1748

Settings	Normal melting temperature [°C]
[1], Crystal	180.2

Settings	Molar enthalpy of transition or fusion [kcal/mol]
[2]	5.33

O=C(O)c1ccccc1 [benzoic acid]
[1], Crystal
Settings	vapor or sublimation pressure [kPa]
297.67 K, Closed cell (Static) method	0.000108
299.96 K, Closed cell (Static) method	0.000142
300.03 K, Closed cell (Static) method	0.000143
302.51 K, Closed cell (Static) method	0.000193
304.75 K, Closed cell (Static) method	0.00025
307.27 K, Closed cell (Static) method	0.000335
309.63 K, Closed cell (Static) method	0.000436
312.08 K, Closed cell (Static) method	0.000573
314.4 K, Closed cell (Static) method	0.000738
314.59 K, Closed cell (Static) method	0.000754
316.3 K, Transpiration method	0.00095
316.91 K, Closed cell (Static) method	0.000969
319.48 K, Closed cell (Static) method	0.00127
320.4 K, Transpiration method	0.00147
321.91 K, Closed cell (Static) method	0.00164
324 K, Transpiration method	0.00214
324.39 K, Closed cell (Static) method	0.00212
326.76 K, Closed cell (Static) method	0.00268
327.4 K, Transpiration method	0.00302
329.2 K, Closed cell (Static) method	0.00343
331.62 K, Closed cell (Static) method	0.00436
332.4 K, Transpiration method	0.00495
334.07 K, Closed cell (Static) method	0.00554
336.46 K, Closed cell (Static) method	0.00693
337.4 K, Transpiration method	0.00809
338.98 K, Closed cell (Static) method	0.00873
342.3 K, Transpiration method	0.01272
347.3 K, Transpiration method	0.01965
352.4 K, Transpiration method	0.03114
357.4 K, Transpiration method	0.04619
362.5 K, Transpiration method	0.06987
367.5 K, Transpiration method	0.1076

Source: the NIST ThermoML archive (doi:10.1016/j.tca.2015.03.026)
